Reference: US10898469B2, “Imidazolylamide derivative” (Sumitomo Dainippon Pharma Co., Ltd., priority 2016, dated 2021)
Read-outs that look alike come from different tables or passages of the source.

What was measured:
Type in all cases: cell-based, human
HCT-116 cells [1] = test: Inhibition test for sphere-forming ability of cancer cells (Test Example 1), HCT-116; details: for IC50 / (100%-inhibition rate of cell proliferation) at 1 μmol/L, HCT-116: HCT-116 cells; for IC50: concentration for 50% inhibition of cell proliferation, read-out: IC50 (μmol/L) HCT-116 (Sphere IC50 value); for inhibitory effect on the sphere-forming ability of cancer cells: Test Example 1, summary in words, cell line not given (HCT-116, HT-29, FaDu tested); for (100%-inhibition rate of cell proliferation) at 1 μmol/L, HCT-116: value with %
Summary of the method: (§1)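 First, 350-800 cells/well are plated on ultra-low-attachment surfaces in serum-free DMEM/F12 supplemented with B27, 20 ng/mL EGF, 10 ng/mL bFGF and insulin. Next, test compound is added (final DMSO 0.1%). After 4 days, viable cells are quantified by CellTiter-Glo and Sphere IC50 is calculated.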

HCT-116 cells [2] = test: Inhibition test for sphere-forming ability of cancer cells in the presence of BSA (Test Example 2), HCT-116; details: HCT-116 cells, in the presence of 5% BSA, cultured 4 days
Procedure: Human colorectal cancer-derived HCT-116 cells, human colon-adenocarcinoma-derived HT-29 cells, and human pharyngeal cancer-derived FaDu cells were available from American Type Culture Collection (ATCC). HCT-116 cells and HT-29 cells were cultured at 37° C. under 5% CO2 using the McCoy's 5a medium containing 10% fetal bovine serum (FBS) and 1% penicillin/streptomycin, and FaDu cells were cultured at 37° C. under 5% CO2 using the MEM medium containing 10% FBS, 1% non-essential amino acid, 1% sodium pyruvate, 5% bovine serum albumin (BSA), and 1% penicillin/streptomycin. HCT-116 cells, HT-29 cells, and FaDu cells were seeded in a 384 Well Black Clear Bottom Ultra-Low Attachment Microplate (Corning Cat. No. 3827) in an amount of 350-800 cells/well using the DMEM/F12 medium containing 2% B27 supplement (GIBCO), 20 ng/mL epidermal growth factor (EGF) (peprotech), 10 ng/mL basic fibroblast growth factor (bFGF) (peprotech), 5 μg/mL insulin (Sigma), 5% bovine serum albumin (BSA), and 1% penicillin/streptomycin. Each test compound was added into each well to adjust the final concentration of DMSO to 0.1%, and the cells were cultured for 4 days. The number of viable cells in each well was then measured with CellTiter-Glo® Luminescent Cell Viability Assay (Promega) to calculate the concentration of each test compound for 50% inhibition of cell proliferation (Sphere IC50 value; μmol/L).
The experiment of Test Example 2 was performed for each compound of each Example.
The concentration of each test compound for 50% inhibition of cell proliferation (Sphere IC50 value; μmol/L) is shown in the following Table.

FaDu cells = test: Inhibition test for sphere-forming ability of cancer cells (Test Example 1), FaDu; details: for IC50: concentration for 50% inhibition of cell proliferation, read-out: IC50 (μmol/L) FaDu (Sphere IC50 value); for (100%-inhibition rate of cell proliferation) at 1 μmol/L, FaDu: value with %
Summary of the method: as §1

HT-29 cells = test: Inhibition test for sphere-forming ability of cancer cells (Test Example 1), HT-29; details: for (100%-inhibition rate of cell proliferation) at 1 μmol/L, HT-29: value with %; for IC50: concentration for 50% inhibition of cell proliferation, read-out: IC50 (μmol/L) HT-29 (Sphere IC50 value)
Summary of the method: as §1

IC50 (HCT-116 cells [1]) [µmol/L]	IC50 (FaDu cells) [µmol/L]	IC50 (HT-29 cells) [µmol/L]	SMILES	further results
6.99	6.52	4.89	O=C(/C=C/c1cccc(Cl)c1)Nc1cn(Cc2cccc(Cl)c2)cn1 [Example 58]	
0.08	0.09	0.07	COc1ccc(C(=O)Nc2cn(Cc3c(F)ccc(C)c3F)cn2)cn1 [Example 216]	inhibitory effect on the sphere-forming ability of cancer cells (HCT-116 cells [1]): particularly potent inhibitory effect
0.23	0.06	0.03	COc1ccc(/C=C/C(=O)Nc2cn(Cc3cccc(Cl)c3)cn2)c(OC)c1 [Example 71]	inhibitory effect on the sphere-forming ability of cancer cells (HCT-116 cells [1]): particularly potent inhibitory effect
7.34	0.79	8.37	COc1cc(/C=C/C(=O)Nc2cn(Cc3cccc(Cl)c3)cn2)cc(OC)c1O [Example 67]	
0.09	0.06	0.07	COc1ccc(/C=C/C(=O)Nc2cn(Cc3cccc(Cl)c3)cn2)cc1OC [Example 66]	inhibitory effect on the sphere-forming ability of cancer cells (HCT-116 cells [1]): particularly potent inhibitory effect
6.51	1.76	0.99	COc1cc(/C=C/C(=O)Nc2cn(Cc3cccc(Cl)c3)cn2)cc(OC)c1OC [Example 82]	
0.96	6.87	5.68	COc1ccc(C(=O)Nc2cn(Cc3cccc(Cl)c3)cn2)cn1 [Example 202]	
0.87	0.87	0.84	COc1ccc(OC)c(/C=C/C(=O)Nc2cn(Cc3cccc(Cl)c3)cn2)c1 [Example 53]	
0.92	9.4	8.34	O=C(Nc1cn(Cc2cccc(Cl)c2)cn1)c1ccc(OCC(F)(F)F)nc1 [Example 219]	
0.57	0.5		COc1ccc(C(=O)Nc2cn(Cc3ccc(Cl)cc3)cn2)cc1OC [Example 158]	IC50 (HCT-116 cells [2]): 4220 nM
> 10	8.2	9.79	O=C(/C=C/c1cccc(C(F)(F)F)c1)Nc1cn(Cc2cccc(Cl)c2)cn1 [Example 60]	
5.31	3.52	0.9	O=C(Nc1cn(Cc2cccc(C(F)(F)F)c2)cn1)c1ccc(OCC(F)(F)F)nc1 [Example 214]	
7.78	0.86	0.79	O=C(/C=C/c1ccc(Cl)c(Cl)c1)Nc1cn(Cc2cccc(Cl)c2)cn1 [Example 59]	
> 10	0.87	7.04	COc1ccc(/C=C/C(=O)Nc2cn(Cc3cccc(Cl)c3)cn2)cc1Cl [Example 80]	

Continued, molecule first:

SMILES	IC50 (HCT-116 cells [1]) [µmol/L]	IC50 (FaDu cells) [µmol/L]	IC50 (HT-29 cells) [µmol/L]	further results
COc1ccc(C(=O)Nc2cn(Cc3cc(F)cc(C(F)(F)F)c3)cn2)cc1OC [Example 162]	0.06	0.06		inhibitory effect on the sphere-forming ability of cancer cells (HCT-116 cells [1]): particularly potent inhibitory effect; IC50 (HCT-116 cells [2]): 510 nM
COc1ccc(C(=O)Nc2cn(Cc3ccc(F)c(C(F)(F)F)c3)cn2)cc1OC [Example 161]	0.04	< 0.01		inhibitory effect on the sphere-forming ability of cancer cells (HCT-116 cells [1]): particularly potent inhibitory effect; IC50 (HCT-116 cells [2]): 410 nM
COc1ccc(C(=O)Nc2cn(Cc3cccc(C(F)(F)F)c3)cn2)cc1OC [Example 165]				(100%-inhibition rate of cell proliferation) at 1 μmol/L, HCT-116 (HCT-116 cells [1]): 31.9%; (100%-inhibition rate of cell proliferation) at 1 μmol/L, FaDu (FaDu cells): 24.1%; (100%-inhibition rate of cell proliferation) at 1 μmol/L, HT-29 (HT-29 cells): 28.0%
O=C(/C=C/c1ccsc1)Nc1cn(Cc2cccc(Cl)c2)cn1 [Example 119]				IC50 (HCT-116 cells [1]; Homo sapiens): 0.67 µmol/L; IC50 (FaDu cells; Homo sapiens): 0.56 µmol/L; IC50 (HT-29 cells; Homo sapiens): 0.16 µmol/L
O=C(/C=C/c1ccccn1)Nc1cn(Cc2cccc(Cl)c2)cn1 [Example 98]	> 10	7.75	7.58	
CCOc1ccc(/C=C/C(=O)Nc2cn(Cc3cccc(C(F)(F)F)c3)cn2)cn1 [Example 107]				IC50 (HCT-116 cells [1]; Homo sapiens): > 10 µmol/L; IC50 (FaDu cells; Homo sapiens): 0.07 µmol/L; IC50 (HT-29 cells; Homo sapiens): 0.04 µmol/L
CS(=O)(=O)c1ccc(/C=C/C(=O)Nc2cn(Cc3cccc(Cl)c3)cn2)cc1 [Example 13]				IC50 (HCT-116 cells [1]; Homo sapiens): 8.72 µmol/L; IC50 (FaDu cells; Homo sapiens): 2.84 µmol/L; IC50 (HT-29 cells; Homo sapiens): 0.74 µmol/L
CCNC(=O)c1ccc(/C=C/C(=O)Nc2cn(Cc3cccc(Cl)c3)cn2)cn1 [Example 26, (E)-5-(3-((1-(3-Chlorobenzyl)-1H-imidazol-4-yl)amino)-3-oxoprop-1-en-1-yl)-N-ethylpicolinamide]				IC50 (HCT-116 cells [1]; Homo sapiens): > 10 µmol/L; IC50 (FaDu cells; Homo sapiens): 5.49 µmol/L; IC50 (HT-29 cells; Homo sapiens): 5.83 µmol/L
O=C(Nc1cn(Cc2cccc(Cl)c2)cn1)c1ccc2nccn2c1 [Example 176]	7.16	5.16	3.43	
O=C(Nc1cn(Cc2cccc(C(F)(F)F)c2)cn1)c1ccc(=O)[nH]c1 [Example 199]				(100%-inhibition rate of cell proliferation) at 1 μmol/L, HCT-116 (HCT-116 cells [1]): 39.8%; (100%-inhibition rate of cell proliferation) at 1 μmol/L, FaDu (FaDu cells): 25.9%; (100%-inhibition rate of cell proliferation) at 1 μmol/L, HT-29 (HT-29 cells): 31.2%
COc1cccc(OC)c1/C=C/C(=O)Nc1cn(Cc2cccc(Cl)c2)cn1 [Example 76]	6.18	4.11	2.71	
Cc1ccc(F)c(Cn2cnc(NC(=O)/C(F)=C/c3cccnc3)c2)c1F [Example 116]				IC50 (HCT-116 cells [1]; Homo sapiens): > 10 µmol/L; IC50 (FaDu cells; Homo sapiens): 0.93 µmol/L; IC50 (HT-29 cells; Homo sapiens): 0.8 µmol/L
Cc1ccc(F)c(Cn2cnc(NC(=O)/C=C/c3cccc(Oc4ccccc4)c3)c2)c1F [Example 114]				IC50 (HCT-116 cells [1]; Homo sapiens): 0.62 µmol/L; IC50 (FaDu cells; Homo sapiens): 0.72 µmol/L; IC50 (HT-29 cells; Homo sapiens): 0.69 µmol/L
O=C(/C=C/c1cccc(Oc2ccccc2)c1)Nc1cn(Cc2cccc(C(F)(F)F)c2)cn1 [Example 104]				IC50 (HCT-116 cells [1]; Homo sapiens): 2.09 µmol/L; IC50 (FaDu cells; Homo sapiens): 2.7 µmol/L; IC50 (HT-29 cells; Homo sapiens): 0.79 µmol/L
O=C(/C=C/c1cncc(F)c1)Nc1cn(Cc2cccc(Cl)c2)cn1 [Example 42, (E)-N-(1-(3-Chlorobenzyl)-1H-imidazol-4-yl)-3-(5-fluoropyridin-3-yl)acrylamide]				IC50 (HCT-116 cells [1]; Homo sapiens): 0.96 µmol/L; IC50 (FaDu cells; Homo sapiens): 5.77 µmol/L; IC50 (HT-29 cells; Homo sapiens): 0.7 µmol/L
O=C(Nc1cn(Cc2cccc(Cl)c2)cn1)c1ccc(OCc2ccccc2)cc1 [Example 197]				(100%-inhibition rate of cell proliferation) at 1 μmol/L, HCT-116 (HCT-116 cells [1]): 44.3%; (100%-inhibition rate of cell proliferation) at 1 μmol/L, FaDu (FaDu cells): 28.9%; (100%-inhibition rate of cell proliferation) at 1 μmol/L, HT-29 (HT-29 cells): 39.0%
O=C(/C=C/c1ccc(C(F)(F)F)cc1)Nc1cn(Cc2cccc(Cl)c2)cn1 [Example 48, (E)-N-(1-(3-Chlorobenzyl)-1H-imidazol-4-yl)-3-(4-(trifluoromethyl)phenyl)acrylamide]				IC50 (HCT-116 cells [1]; Homo sapiens): 0.76 µmol/L; IC50 (FaDu cells; Homo sapiens): 0.09 µmol/L; IC50 (HT-29 cells; Homo sapiens): 0.08 µmol/L
COc1ccccc1/C=C/C(=O)Nc1cn(Cc2cccc(Cl)c2)cn1 [Example 77]	0.84	< 0.01	0.38	inhibitory effect on the sphere-forming ability of cancer cells (HCT-116 cells [1]): particularly potent inhibitory effect
O=C(/C=C/c1ccccc1F)Nc1cn(Cc2cccc(Cl)c2)cn1 [Example 50]	2.48	6.7	0.89	
O=C(/C=C/c1cccc(Oc2ccccc2)c1)Nc1cn(Cc2cccc(OC(F)(F)F)c2)cn1 [Example 108]				IC50 (HCT-116 cells [1]; Homo sapiens): 3.31 µmol/L; IC50 (FaDu cells; Homo sapiens): 9.77 µmol/L; IC50 (HT-29 cells; Homo sapiens): 3.43 µmol/L
Cc1cccc(/C=C/C(=O)Nc2cn(Cc3cccc(Cl)c3)cn2)c1 [Example 73]	4.53	0.85	1.49	
O=C(/C=C/c1ccc(Br)cc1)Nc1cn(Cc2cccc(Cl)c2)cn1 [Example 61]	0.09	0.07	0.02	inhibitory effect on the sphere-forming ability of cancer cells (HCT-116 cells [1]): particularly potent inhibitory effect
COc1ccc(C(=O)Nc2cn(Cc3ccc(C(F)(F)F)o3)cn2)cc1OC [Example 171]				(100%-inhibition rate of cell proliferation) at 1 μmol/L, HCT-116 (HCT-116 cells [1]): 36.4%; (100%-inhibition rate of cell proliferation) at 1 μmol/L, FaDu (FaDu cells): 29.6%; (100%-inhibition rate of cell proliferation) at 1 μmol/L, HT-29 (HT-29 cells): 33.8%
COc1ccc(C(=O)Nc2cn(Cc3cccc(OCc4ccccc4)c3)cn2)cc1OC [Example 169]				(100%-inhibition rate of cell proliferation) at 1 μmol/L, HCT-116 (HCT-116 cells [1]): 50.9%; (100%-inhibition rate of cell proliferation) at 1 μmol/L, FaDu (FaDu cells): 68.6%; (100%-inhibition rate of cell proliferation) at 1 μmol/L, HT-29 (HT-29 cells): 35.4%
Cc1ccc(C(=O)Nc2cn(Cc3cccc(Cl)c3)cn2)cn1 [Example 198]				(100%-inhibition rate of cell proliferation) at 1 μmol/L, HCT-116 (HCT-116 cells [1]): 55.3%; (100%-inhibition rate of cell proliferation) at 1 μmol/L, FaDu (FaDu cells): 64.5%; (100%-inhibition rate of cell proliferation) at 1 μmol/L, HT-29 (HT-29 cells): 99.8%
